# Data: patent US12503454B2, “LPA receptor antagonists and uses thereof” (Gilead Sciences, Inc., priority 2021, dated 2025)
# Target: human LPAR1 (Homo sapiens, UniProt Q92633)
# Test: LPAR1 intracellular calcium mobilization assay (antagonist mode, FLIPR)
# Format: cell-based
# Settings: CHO-K1 EDG2 cells expressing human LPAR1; test compound 0.5 nM to 10 μM pre-incubated 60 minutes at 37° C., then LPA 18:2 at EC80 concentration (100 nM)
# Method: In vitro LPAR1 activity was measured in an intracellular calcium mobilization assay. CHO-K1 EDG2 cells (DiscoverX cat #93-0644C2) expressing human LPAR1 (NM_001401.3) were seeded in a total volume of 25 μL of Dulbecco's Modification of Eagle's Medium (DMEM) with 10% Fetal Bovine Serum, 1× PenStrepGlutamine, 300 μg/ml Hygromycin, and 800 μg/ml G418 into 384-well tissue culture plate (Grenier #781091) at 15,000 cells/well and incubated at 37° C. overnight. Prior to testing, 25 μL Calcium Loading Dye Component A (FLIPR Calcium 6 Assay Kit Molecular Device # R8190) and 2.5 mM Probenecid (Invitrogen # P36400, prepared fresh) in Hank's Balanced Salt Solution (Corning #21-023-CV), 20 mM HEPES (Corning #25-060-CI), 0.1% Bovine Serum Albumin (Sigma-Aldrich # A7906-500G) was add to the cells for 60 minutes at 37° C.
# Agonist dose curves of LPA 18:2 (Avanti Polar Lipids cat #857138, 0.5 nM to 10 μM) were recorded to determine the LPA 18:2 EC80 for subsequent antagonist assays. For agonist dose curves, cells were removed from the incubator 2 hours after dye loading and transferred to the FLIPR Tetra instrument (Molecular Devices, San Jose, CA). Calcium mobilization was monitored for 5 min and 10 μL 6×LPA in HBSS/20 mM Hepes/0.1% bovine serum albumin (BSA) was added to the cells 5 seconds into the assay.
# To determine the LPAR1 antagonist activity of test compounds, cells were pre-incubated with test compound at a dose range of 0.5 nM to 10 μM, followed by LPA at EC80 concentration (100 nM). After dye loading, cells were removed from the incubator and 0.3 μL of 200× antagonist was added. Cells were incubated for 60 minutes at 37° C. Antagonist activity was measured on a FLIPR Tetra. Calcium mobilization was monitored for 3.5 minutes and 10 μL 6×EC80 LPA in HBSS, 20 mM HEPES, and 0.1% BSA was added to the cells 5 seconds into the assay. Signal amplitude (Maximum minus minimum) values were plotted against log10 of antagonist concentration using Dose Response Tool (Gilead Sciences Inc.) to determine […].
# To assess the antagonistic potential of exemplified compounds […] were determined for Compounds 1 to 66 in the LPAR1 calcium mobilization assay. The compound numbers correspond to the compound numbers in Examples 1 to 18. N/A=not available.
# Chain of human LPAR1 (Q92633 whole entry): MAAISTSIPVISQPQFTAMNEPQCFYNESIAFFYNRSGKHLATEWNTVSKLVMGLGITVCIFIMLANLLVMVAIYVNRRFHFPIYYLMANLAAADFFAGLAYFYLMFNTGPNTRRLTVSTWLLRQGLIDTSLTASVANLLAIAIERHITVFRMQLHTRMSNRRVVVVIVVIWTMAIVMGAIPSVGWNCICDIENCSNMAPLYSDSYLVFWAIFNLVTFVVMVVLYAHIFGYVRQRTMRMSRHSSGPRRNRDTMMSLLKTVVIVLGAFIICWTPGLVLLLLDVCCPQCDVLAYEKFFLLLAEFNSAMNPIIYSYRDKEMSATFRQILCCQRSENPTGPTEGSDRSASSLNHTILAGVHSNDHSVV
row,SMILES,EC50
1,C[C@@H](OC(=O)Nc1c(-c2ccc(C(=O)NC34CC(CO)(C3)C4)cn2)nnn1C)c1cccnc1Cl [Compound 13],251 nM
2,"C[C@@H](OC(=O)Nc1c(-c2ccc(C(=O)Nc3ccccc3)cn2)nnn1C)c1cccnc1Cl [Compound 14, (R)-1-(2-chloro-pyridin-3-yl)-ethyl (1-methyl-4-(5-(phenyl-carbamoyl)-pyridin-2-yl)-1H-1,2,3-triazol-5-yl)carbamate]",256 nM
3,"C[C@@H](OC(=O)Nc1c(-c2ccc(C(=O)NC34CC(C(F)(F)F)(C3)C4)cn2)nnn1C)c1cccnc1Cl [Compound 15, (R)-1-(2-chloro-pyridin-3-yl)ethyl (1-methyl-4-(5-((3-(trifluoro-methyl)bicyclo-[1.1.1]pentan-1-yl)carbamoyl)-pyridin-2-yl)-1H-1,2,3-triazol-5-yl)carbamate]",26.2 nM
4,"C[C@@H](OC(=O)Nc1c(-c2ccc(C(=O)NC3CCOCC3)cn2)nnn1C)c1cccnc1Cl [Compound 16, (R)-1-(2-chloro-pyridin-3-yl)-ethyl (1-methyl-4-(5-((tetrahydro-2H-pyran-4-yl)-carbamoyl)-pyridin-2-yl)-1H-1,2,3-triazol-5-yl)carbamate]",3590 nM
5,"C[C@@H](OC(=O)Nc1c(-c2ccc(C(=O)Nc3ccc(N4CCOCC4)cc3)cn2)nnn1C)c1cccnc1Cl [Compound 17, (R)-1-(2-chloro-pyridin-3-yl)-ethyl (1-methyl-4-(5-((4-morph-olinophenyl)-carbamoyl)-pyridin-2-yl)-1H-1,2,3-triazol-5-yl)carbamate]",649 nM
6,"C[C@@H](OC(=O)Nc1c(-c2ccc(C(=O)NC34CC(C#N)(C3)C4)cn2)nnn1C)c1cc(F)cnc1F [Compound 18, (R)-1-(2,5-difluoropyridin-3-yl)ethyl (4-(5-((3-cyanobicyclo[1.1.1]pentan-1-yl)carbamoyl)pyridin-2-yl)-1-methyl-1H-1,2,3-triazol-5-yl)carbamate]",91.2 nM
7,"C[C@@H](OC(=O)Nc1c(-c2ccc(C(=O)Nc3ccnc(C(F)(F)F)c3)cn2)nnn1C)c1cc(F)cnc1F [Compound 19, (R)-1-(2,5-difluoropyridin-3-yl)ethyl (1-methyl-4-(5-((2-(trifluoromethyl)pyridin-4-yl)carbamoyl)pyridin-2-yl)-1H-1,2,3-triazol-5-yl)carbamate]",16.6 nM
8,"C[C@@H](OC(=O)Nc1c(-c2ccc(C(=O)NC34CC(F)(C3)C4)cn2)nnn1C)c1cc(F)cnc1F [Compound 20, (R)-1-(2,5-difluoro-pyridin-3-yl)ethyl (4-(5-((3-fluoro-bicyclo[1.1.1]-pentan-1-yl)-carbamoyl)pyridin-2-yl)-1-methyl-1H-1,2,3-triazol-5-yl)carbamate]",313 nM
9,"C[C@@H](OC(=O)Nc1c(-c2ccc(C(=O)NC34CC(Cl)(C3)C4)cn2)nnn1C)c1cc(F)cnc1F [Compound 21, (R)-1-(2,5-difluoro-pyridin-3-yl)ethyl (4-(5-((3-chloro-bicyclo[1.1.1]-pentan-1-yl)-carbamoyl)pyridin-2-yl)-1-methyl-1H-1,2,3-triazol-5-yl)carbamate]",44.8 nM
10,"C[C@@H](OC(=O)Nc1c(-c2ccc(C(=O)NC34CC(C(F)(F)F)(C3)C4)cn2)nnn1C)c1cc(F)cnc1F [Compound 22, (R)-1-(2,5-difluoro-pyridin-3-yl)ethyl (1-methyl-4-(5-((3-(trifluorometh-yl)bicyclo[1.1.1]-pentan-1-yl)carbam-oyl)pyridin-2-yl)-1H-1,2,3-triazol-5-yl)carbamate]",84.8 nM
11,"C[C@@H](OC(=O)Nc1c(-c2ccc(C(=O)NC34CC(C(F)F)(C3)C4)cn2)nnn1C)c1cc(F)cnc1F [Compound 23, (R)-1-(2,5-difluoro-pyridin-3-yl)ethyl (4-(5-((3-(difluoro-methyl)bicyclo-[1.1.1]pentan-1-yl)carbamoyl)-pyridin-2-yl)-1-methyl-1H-1,2,3-triazol-5-yl)-carbamate]",159 nM
